# Legend:
# [1] = test system: rat primary cortical neurones; assay: Reversal of glutamate-induced neurodegeneration (LDH), treatment after glutamate exposure; type: cell-based; settings: LDH after 24 h, control = 100
# [2] = test system: rat mesencephalic dopaminergic neurones; assay: Treatment of dopaminergic neurones after MPP+ exposure (survival, neurites); type: cell-based; settings: MPP+ 2 μM
# Source text: Smilagenin and sarsasapogenin also reverse the neurodegeneration caused by exposure to the neurotoxin 1-methyl-4-phenylpyridinium (MPP^+) in rat mesencephalic dopaminergic neurones; a model of Parkinson's disease in vitro.
# Glial cell line-derived neurotrophic factor (GDNF) and brain-derived neurotrophic factor (BDNF), molecules that are involved in neuronal growth, and 17β-oestradiol were used as positive controls. Treatment with smilagenin and sarsasapogenin produced a significant increase in the neuronal survival compared to neurones exposed to MPP^+ alone (Table 8).
# Exposure to MPP^+ caused not only a significant decrease in dopaminergic number but also in the percentage of neurites.
# SOD-1 transgenic mice = assay: Survival and behaviour of SOD-1 mice (ALS model); type: in vivo; settings: SOD mouse
# Source text: Amyotrophic lateral sclerosis (ALS) is a progressive fatal neurodegenerative disorder that causes motor neurone degeneration, […], paralysis and death. The cause of this disease is heterogeneous: mutations in the Cu/Zn superoxide dismutase (SOD-1) gene is responsible for some forms of human ALS. Animal models of this disease include the SOD-1 transgenic mice over-expressing SOD-1 gene and the progressive motor neuropathy (pmn, a model of Charcot-Marie-Tooth) mice.
compound,measurement,setting,value
C[C@@H]1CC[C@@]2(OC1)O[C@H]1C[C@H]3[C@@H]4CC[C@@H]5C[C@@H](O)CC[C@]5(C)[C@H]4CC[C@]3(C)[C@H]1[C@@H]2C [smilagenin],"Cortical neurones previously exposed to glutamate, Mean ± s.e.m (%)",[1]; 3 nM after glutamate 100 μM 10 min,109 ± 6%
same,"Cortical neurones previously exposed to glutamate, Mean ± s.e.m (%)",[1]; 30 nM after glutamate 100 μM 10 min,104 ± 1%
same,"Percentage of neurites in dopaminergic neurones after MPP+ exposure, Mean ± s.e.m (%)","[2]; 0.03 nM, control 41 ± 4, MPP+ alone 27 ± 5",41 ± 4%
same,"Dopaminergic neurones after MPP+ exposure (survival), Mean ± s.e.m (%)","[2]; treatment 0.03 nM, MPP+ alone 76 ± 4",111 ± 6%
same,Behavioural deficits,SOD-1 transgenic mice; oral administration,improve the behavioural deficits
same,Lifespan (survival),SOD-1 transgenic mice; oral administration (FIG. 5),increase the lifespan
